Patent publication US8741859B2, “Fungicide composition for agriculture and horticulture and method for preventing plant diseases” (Ishihara Sangyo Kaisha, Ltd, priority 2008, dated 2014)

What was measured:
Pythium spinosum = assay: Inhibition test of mycelial growth against rice seedling blight (Pythium spinosum); format: cell-based; settings: Globisporangium spinosum, 48 h, PDA plate, 2 days, 20° C., read-out: Inhibition Rate of Mycelial Growth against Pythium spinosum (%)
Protocol: Inhibition Test of Mycelial Growth Against Rice Seedling Blight (Pythium spinosum)
(§1) The strain to use for a test was precultured on a PSA plate for two days at 20° C. Then, the peripheral portion of the grown mycelia was cut out with a cork borer (4 mm in diameter) to put on PDA plate which was prepared to contain an active ingredient at a predetermined concentration by diluting. After culturing for two days at 20° C., a diameter of the mycelial colony was measured to obtain an inhibition rate of mycelial growth.
(§2) In addition, a theoretical value of the inhibition rate was calculated using Colby's formula and listed in parentheses of Table 1.

Pythium graminicola = assay: Inhibition test of mycelial growth against turf Pythium blight (Pythium graminicola); format: cell-based
Protocol: as §1, §2
Inhibition Test of Mycelial Growth Against Turf Pythium Blight (Pythium graminicola)
The inhibition rate of mycelial growth was obtained by measuring mycelial growth in the same manner as Test Example 1. In addition, the mean mycelial growth of non-treated group was 46.5 mm.

Cc1ccc(-c2c(Cl)nc(C#N)n2S(=O)(=O)N(C)C)cc1 [Cyazofamid, 4-chloro-2-cyano-1-dimethylsulfamoyl-5-(4-methylphenyl)imidazole]
inhibition at 1 ppm (Pythium spinosum; Cyazofamid 1.0 ppm alone (polyoxin 0 ppm)): 68%
inhibition at 10 ppm (Pythium spinosum; Cyazofamid 10.0 ppm alone (polyoxin 0 ppm)): 54%
Inhibition Rate of Mycelial Growth (%) (Pythium graminicola; Cyazofamid 1 ppm alone (agent 0 ppm)): 48%
Inhibition Rate of Mycelial Growth (%) (Pythium graminicola; Cyazofamid 10 ppm alone (agent 0 ppm)): 47%
Inhibition Rate of Mycelial Growth (%) (Pythium graminicola; Cyazofamid 100 ppm alone (agent 0 ppm)): 68%
